According to patent publication US20260224738A1, “MICELLE NANOPARTICLES COMPRISING BIOPOLYMER-HEMIN COMPLEX, AND USE THEREOF” (GWANGJU INSTITUTE OF SCIENCE AND TECHNOLOGY, priority 2023, published 2026):

Columns and labels:
HK-2 cells = test: Cell viability against ROS (200 μM hydrogen peroxide), Alamar Blue; assay type: cell-based, human
Description: HK-2 cells were treated with 200 μM hydrogen peroxide and various concentrations of the biopolymer-hemin complexes. After 24 hours of incubation, cell viability was evaluated using the Alamar Blue assay.
It was confirmed that the biopolymer-hemin complex removes ROS such as hydrogen peroxide and protects cells from oxidative stress (FIG. 4D). The ROS protective effect of the biopolymer-hemin complex was assayed in HK-2 cells with hydrogen peroxide. Various concentrations of hemin and biopolymer-hemin complexes with the same amount of hemin were added to cells treated with hydrogen peroxide (200 μM). The survival rate of cells was improved by increasing the concentration of the biopolymer-hemin complex or hemin.

[1] = test system: AKI mouse model established using glycerol; test: Serum analysis (BUN, creatinine) of AKI mice; assay type: in vivo, ICR mice; conditions: 10 mg/kg intravenous, 24 hours, compared to AKI mice
Description: (§1) All animal experiments were performed in accordance with the Gwangju Institute of Science and Technology Animal Care Committee guidelines (GIST-2021-095). Six-week-old ICR mice (30 g) were used, with free access to food and water. To establish an acute kidney injury (AKI) model, water was restricted for 18 hours. Next, 50% glycerol solution (8 mL/kg) was injected intramuscularly into both hind limbs of each mouse.
(§2) After establishing the AKI model, 10 mg/kg of hemin and biopolymer-hemin complex was injected intravenously. Twenty-four hours later, blood was collected for serum urea nitrogen (BUN) and creatinine analysis. Kidneys and other major organs (heart, liver, spleen, and lungs) were also collected for further histological analysis. 1-10. Histological analysis

[2] = test system: AKI mouse model established using glycerol; test: Histological analysis of kidneys of AKI mice (H&E, DHE, KIM-1, MAC387); assay type: in vivo, ICR mice
Description: as §1, §2
The kidneys of each group were fixed with 4% formaldehyde, embedded in paraffin, and cut into 5 μm thick sections. H&E staining and TUNEL analysis of kidney sections were performed according to the manufacturer's protocol. For immunostaining of kidney injury molecule-1 (KIM-1) and MAC387, sections were treated with 100-fold diluted KIM-1 and MAC primary antibodies, and 200-fold diluted anti-rabbit IgG (Alexa Fluor 594) and anti-mouse IgG (Alexa Fluor 488) were each used as a secondary antibody. […] Images were analyzed quantitatively using ImageJ software. […]

## Hemin
HK-2 cells; HK-2, 200 μM hydrogen peroxide
  cytoprotective effect against hydrogen peroxide, overall: no significant difference observed between CS-H and hemin
HK-2 cells; hemin concentration 1 μM, 200 μM hydrogen peroxide
  cell viability against hydrogen peroxide: no protective effect at all
HK-2 cells; hemin concentration 5 and 25 μM, 200 μM hydrogen peroxide
  protective effect against hydrogen peroxide: improved protective effects
[1]
  serum BUN level: did not induce significant changes
  serum creatinine level: did not induce significant changes
[2]; AKI mice (FIG. 6D, 6F)
  kidney ROS levels (DHE staining): not effective in reducing ROS levels
[2]; AKI mice kidney
  macrophage signal (MAC387 immunostaining): strong macrophage signals
